Laboratory results as given in patent EP0726263A2, “Herbicidal (1,3,4)oxadiazoles and thiadiazoles” (American Cyanamid Company, priority 1995, dated 1996).

Columns and labels:
Assay type in all cases: in vivo
Papaver rhoeas [1] = assay: Herbicidal activity, postemergence test; conditions: post; sprayed onto seedling plants, 800 g of active material per hectare; evaluated 2 weeks after treatment
Method in brief: (§1)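 First, test compound in acetone containing 0.4% Triton X-155 is diluted with water. Next, it is sprayed at 800 g/ha (900 L/ha) onto freshly seeded loam (pre) or onto seedlings (post). Finally, plants are scored 0-9 visually after 3 or 2 weeks, respectively.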

Lamium purpureum [2] = assay: Herbicidal activity, postemergence test; conditions: post; sprayed onto seedling plants, 800 g of active material per hectare; evaluated 2 weeks after treatment
Method in brief: as §1

Ipomoea hederacea [3] = assay: Herbicidal activity, postemergence test; conditions: post; sprayed onto seedling plants, 800 g of active material per hectare; evaluated 2 weeks after treatment
Method in brief: as §1

Matricaria inodora [4] = assay: Herbicidal activity, postemergence test; conditions: post; sprayed onto seedling plants, 800 g of active material per hectare; evaluated 2 weeks after treatment
Method in brief: as §1

Stellaria media [5] = assay: Herbicidal activity, postemergence test; conditions: post; sprayed onto seedling plants, 800 g of active material per hectare; evaluated 2 weeks after treatment
Method in brief: as §1

Triticum aestivum [6] = assay: Herbicidal activity, postemergence test; conditions: post; sprayed onto seedling plants, 800 g of active material per hectare; evaluated 2 weeks after treatment
Method in brief: as §1

Amaranthus retroflexus [7] = assay: Herbicidal activity, postemergence test; conditions: post; sprayed onto seedling plants, 800 g of active material per hectare; evaluated 2 weeks after treatment
Method in brief: as §1

Gossypium hirsutum [8] = assay: Herbicidal activity, postemergence test; conditions: post; sprayed onto seedling plants, 800 g of active material per hectare; evaluated 2 weeks after treatment
Method in brief: as §1

Alopecurus myosuroides [9] = assay: Herbicidal activity, postemergence test; conditions: post; sprayed onto seedling plants, 800 g of active material per hectare; evaluated 2 weeks after treatment
Method in brief: as §1

Veronica persica [10] = assay: Herbicidal activity, postemergence test; conditions: post; sprayed onto seedling plants, 800 g of active material per hectare; evaluated 2 weeks after treatment
Method in brief: as §1

Abutilon theophrasti [11] = assay: Herbicidal activity, postemergence test; conditions: post; sprayed onto seedling plants, 800 g of active material per hectare; evaluated 2 weeks after treatment
Method in brief: as §1

Hordeum vulgare [12] = assay: Herbicidal activity, postemergence test; conditions: post; sprayed onto seedling plants, 800 g of active material per hectare; evaluated 2 weeks after treatment
Method in brief: as §1

Ambrosia artemisifolia [13] = assay: Herbicidal activity, postemergence test; conditions: post; sprayed onto seedling plants, 800 g of active material per hectare; evaluated 2 weeks after treatment
Method in brief: as §1

Glycine max [14] = assay: Herbicidal activity, postemergence test; conditions: post; sprayed onto seedling plants, 800 g of active material per hectare; evaluated 2 weeks after treatment
Method in brief: as §1

Zea mays [15] = assay: Herbicidal activity, postemergence test; conditions: post; sprayed onto seedling plants, 800 g of active material per hectare; evaluated 2 weeks after treatment
Method in brief: as §1

Chenopodium album [16] = assay: Herbicidal activity, postemergence test; conditions: post; sprayed onto seedling plants, 800 g of active material per hectare; evaluated 2 weeks after treatment
Method in brief: as §1

Setaria viridis [17] = assay: Herbicidal activity, postemergence test; conditions: post; sprayed onto seedling plants, 800 g of active material per hectare; evaluated 2 weeks after treatment
Method in brief: as §1

Galium aparine [18] = assay: Herbicidal activity, postemergence test; conditions: post; sprayed onto seedling plants, 800 g of active material per hectare; evaluated 2 weeks after treatment
Method in brief: as §1

Papaver rhoeas [19] = assay: Herbicidal activity, preemergence test; conditions: pre; sprayed onto soil, 800 g of active material per hectare; evaluated 3 weeks after treatment
Method in brief: (§2)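 Scored visually on a 0-9 scale against untreated sown soil 3 weeks after application. Seeds freshly sown in prepared loam received a soil spray of 800 g/ha active material, applied as a water-diluted acetone solution with 0.4% TRITON X-155 at 900 L/ha.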

Lamium purpureum [20] = assay: Herbicidal activity, preemergence test; conditions: pre; sprayed onto soil, 800 g of active material per hectare; evaluated 3 weeks after treatment
Method in brief: as §2

Ipomoea hederacea [21] = assay: Herbicidal activity, preemergence test; conditions: pre; sprayed onto soil, 800 g of active material per hectare; evaluated 3 weeks after treatment
Method in brief: as §2

Matricaria inodora [22] = assay: Herbicidal activity, preemergence test; conditions: pre; sprayed onto soil, 800 g of active material per hectare; evaluated 3 weeks after treatment
Method in brief: as §2

Stellaria media [23] = assay: Herbicidal activity, preemergence test; conditions: pre; sprayed onto soil, 800 g of active material per hectare; evaluated 3 weeks after treatment
Method in brief: as §2

Triticum aestivum [24] = assay: Herbicidal activity, preemergence test; conditions: pre; sprayed onto soil, 800 g of active material per hectare; evaluated 3 weeks after treatment
Method in brief: as §2

Amaranthus retroflexus [25] = assay: Herbicidal activity, preemergence test; conditions: pre; sprayed onto soil, 800 g of active material per hectare; evaluated 3 weeks after treatment
Method in brief: as §2

Gossypium hirsutum [26] = assay: Herbicidal activity, preemergence test; conditions: pre; sprayed onto soil, 800 g of active material per hectare; evaluated 3 weeks after treatment
Method in brief: as §2

Alopecurus myosuroides [27] = assay: Herbicidal activity, preemergence test; conditions: pre; sprayed onto soil, 800 g of active material per hectare; evaluated 3 weeks after treatment
Method in brief: as §2

Veronica persica [28] = assay: Herbicidal activity, preemergence test; conditions: pre; sprayed onto soil, 800 g of active material per hectare; evaluated 3 weeks after treatment
Method in brief: as §2

Abutilon theophrasti [29] = assay: Herbicidal activity, preemergence test; conditions: pre; sprayed onto soil, 800 g of active material per hectare; evaluated 3 weeks after treatment
Method in brief: as §2

Hordeum vulgare [30] = assay: Herbicidal activity, preemergence test; conditions: pre; sprayed onto soil, 800 g of active material per hectare; evaluated 3 weeks after treatment
Method in brief: as §2

Ambrosia artemisifolia [31] = assay: Herbicidal activity, preemergence test; conditions: pre; sprayed onto soil, 800 g of active material per hectare; evaluated 3 weeks after treatment
Method in brief: as §2

Glycine max [32] = assay: Herbicidal activity, preemergence test; conditions: pre; sprayed onto soil, 800 g of active material per hectare; evaluated 3 weeks after treatment
Method in brief: as §2

Zea mays [33] = assay: Herbicidal activity, preemergence test; conditions: pre; sprayed onto soil, 800 g of active material per hectare; evaluated 3 weeks after treatment
Method in brief: as §2

Chenopodium album [34] = assay: Herbicidal activity, preemergence test; conditions: pre; sprayed onto soil, 800 g of active material per hectare; evaluated 3 weeks after treatment
Method in brief: as §2

Setaria viridis [35] = assay: Herbicidal activity, preemergence test; conditions: pre; sprayed onto soil, 800 g of active material per hectare; evaluated 3 weeks after treatment
Method in brief: as §2

Galium aparine [36] = assay: Herbicidal activity, preemergence test; conditions: pre; sprayed onto soil, 800 g of active material per hectare; evaluated 3 weeks after treatment
Method in brief: as §2

Row | SMILES | PAPRH control rating (0-9) (Papaver rhoeas [1]) | LAMPU control rating (0-9) (Lamium purpureum [2]) | IPOHE control rating (0-9) (Ipomoea hederacea [3]) | MATIN control rating (0-9) (Matricaria inodora [4]) | STEME control rating (0-9) (Stellaria media [5]) | TRZAW control rating (0-9) (Triticum aestivum [6]) | AMARE control rating (0-9) (Amaranthus retroflexus [7]) | GOSHI control rating (0-9) (Gossypium hirsutum [8]) | ALOMY control rating (0-9) (Alopecurus myosuroides [9]) | VERPE control rating (0-9) (Veronica persica [10]) | ABUTH control rating (0-9) (Abutilon theophrasti [11]) | HORVW control rating (0-9) (Hordeum vulgare [12]) | AMBEL control rating (0-9) (Ambrosia artemisifolia [13]) | GLXMA control rating (0-9) (Glycine max [14]) | ZEAMX control rating (0-9) (Zea mays [15]) | CHEAL control rating (0-9) (Chenopodium album [16]) | SETVI control rating (0-9) (Setaria viridis [17]) | GALAP control rating (0-9) (Galium aparine [18]) | PAPRH control rating (0-9) (Papaver rhoeas [19]) | LAMPU control rating (0-9) (Lamium purpureum [20]) | also measured
1 | C[C@H](NC(=O)c1nnc(-c2c(F)cccc2F)o1)c1ccccc1 [Example 24] | 6 (herbicidal effect) | 8 (approaching complete kill) | 5 (definite injury) | 4 (injury) | 8 (approaching complete kill) | 3 (moderate effect) | 9 (complete kill) | 8 (approaching complete kill) | 2 (slight effect) | 9 (complete kill) | 9 (complete kill) | 2 (slight effect) | 8 (approaching complete kill) | 4 (injury) | 2 (slight effect) | 9 (complete kill) | 6 (herbicidal effect) | 5 (definite injury) | 9 (complete kill) | 7 (good herbicidal effect) | IPOHE control rating (0-9) (Ipomoea hederacea [21]): 2 (slight effect); MATIN control rating (0-9) (Matricaria inodora [22]): 9 (complete kill); STEME control rating (0-9) (Stellaria media [23]): 8 (approaching complete kill); TRZAW control rating (0-9) (Triticum aestivum [24]): 0 (no effect); AMARE control rating (0-9) (Amaranthus retroflexus [25]): 9 (complete kill); GOSHI control rating (0-9) (Gossypium hirsutum [26]): 0 (no effect); ALOMY control rating (0-9) (Alopecurus myosuroides [27]): 2 (slight effect); VERPE control rating (0-9) (Veronica persica [28]): 9 (complete kill); ABUTH control rating (0-9) (Abutilon theophrasti [29]): 7 (good herbicidal effect); HORVW control rating (0-9) (Hordeum vulgare [30]): 0 (no effect); AMBEL control rating (0-9) (Ambrosia artemisifolia [31]): 3 (moderate effect); GLXMA control rating (0-9) (Glycine max [32]): 0 (no effect); ZEAMX control rating (0-9) (Zea mays [33]): 0 (no effect); CHEAL control rating (0-9) (Chenopodium album [34]): 8 (approaching complete kill); SETVI control rating (0-9) (Setaria viridis [35]): 8 (approaching complete kill); GALAP control rating (0-9) (Galium aparine [36]): 0 (no effect)
2 | C[C@H](NC(=O)c1nnc(-c2c(Cl)cccc2Cl)o1)c1ccccc1 [Example 25] | 2 (slight effect) | 1 (trace effect) | 1 (trace effect) | 0 (no effect) | 0 (no effect) | 0 (no effect) | 5 (definite injury) | 0 (no effect) | 0 (no effect) | 0 (no effect) | 1 (trace effect) | 0 (no effect) | 0 (no effect) | 1 (trace effect) | 0 (no effect) | 5 (definite injury) | 0 (no effect) | 0 (no effect) | 3 (moderate effect) | 0 (no effect) | IPOHE control rating (0-9) (Ipomoea hederacea [21]): 0 (no effect); MATIN control rating (0-9) (Matricaria inodora [22]): 0 (no effect); STEME control rating (0-9) (Stellaria media [23]): 0 (no effect); TRZAW control rating (0-9) (Triticum aestivum [24]): 0 (no effect); AMARE control rating (0-9) (Amaranthus retroflexus [25]): 3 (moderate effect); GOSHI control rating (0-9) (Gossypium hirsutum [26]): 0 (no effect); ALOMY control rating (0-9) (Alopecurus myosuroides [27]): 0 (no effect); VERPE control rating (0-9) (Veronica persica [28]): 0 (no effect); ABUTH control rating (0-9) (Abutilon theophrasti [29]): 0 (no effect); HORVW control rating (0-9) (Hordeum vulgare [30]): 0 (no effect); AMBEL control rating (0-9) (Ambrosia artemisifolia [31]): 0 (no effect); GLXMA control rating (0-9) (Glycine max [32]): 0 (no effect); ZEAMX control rating (0-9) (Zea mays [33]): 0 (no effect); CHEAL control rating (0-9) (Chenopodium album [34]): 0 (no effect); SETVI control rating (0-9) (Setaria viridis [35]): 0 (no effect); GALAP control rating (0-9) (Galium aparine [36]): 0 (no effect)
